Among the test systems are SF-295 CNS; MDA-N; U251 CNS; SF-268 CNS; NCI-H23 lung; MALME-3M melanoma; UACC-257 melanoma; UACC-62 melanoma; NCI/ADR-RES ovarian; HT29 colon; COLO 205 colon; ACHN renal; UO-31 renal; SN12C renal; NCI-H226 lung; SK-MEL-28 melanoma; SK-MEL-5 melanoma; EKVX NSCLC; SF-539 CNS; DU-145 prostate.
Holding throughout (assay): growth of human tumour cells (NCI), 48 h

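Briefly, cells in 96-well plates were exposed to five compound concentrations for 48 h, and endpoints were estimated by linear interpolation. TGI is the concentration that stops growth completely.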 Where only a bound is given, the exact number is not on record here.

With `CCCCCCSCC/C(C)=N\OC`, the TGI with SF-295 CNS, with MDA-N, with U251 CNS, with SF-268 CNS, in the test on NCI-H23 lung and in the test with MALME-3M melanoma was above 100 µM throughout. Besides, the TGI in the test with UACC-257 melanoma, with UACC-62 melanoma, in the test on NCI/ADR-RES ovarian, with HT29 colon, with COLO 205 colon and in the test with ACHN renal was above 100 µM throughout. The TGI in the test on UO-31 renal, in the test on SN12C renal, with NCI-H226 lung, in the test with SK-MEL-28 melanoma, in the test with SK-MEL-5 melanoma and with EKVX NSCLC was above 100 µM in each case. Moreover, the TGI with SF-539 CNS and in the test on DU-145 prostate was above 100 µM each time.

Turning to `OC(Cc1ccc2ccccc2n1)(C(F)(F)Cl)C(F)(F)Cl`, the TGI with SF-295 CNS, with MDA-N, in the test with U251 CNS, in the test with SF-268 CNS, with NCI-H23 lung and in the test on MALME-3M melanoma was above 10 µM each time. Further, the TGI in the test with UACC-257 melanoma, in the test on UACC-62 melanoma, in the test on NCI/ADR-RES ovarian, in the test with HT29 colon, in the test with COLO 205 colon and with ACHN renal was above 10 µM each time. In addition, the TGI with UO-31 renal, with SN12C renal, with NCI-H226 lung, in the test on SK-MEL-28 melanoma, with SK-MEL-5 melanoma and with EKVX NSCLC was above 10 µM in each case. The TGI in the test on SF-539 CNS and in the test with DU-145 prostate was above 10 µM in each case.

For the compound `COc1cc(C(c2cccc3ccccc23)N2C(=O)CCC2C(=O)O)cc(OC)c1OC` (stereo not given), the TGI with SF-295 CNS, with MDA-N, in the test with U251 CNS, in the test with SF-268 CNS, with NCI-H23 lung and in the test with MALME-3M melanoma was above 100 µM each time. Besides, the TGI in the test with UACC-257 melanoma, in the test with UACC-62 melanoma, with NCI/ADR-RES ovarian, with HT29 colon, with COLO 205 colon and with ACHN renal was above 100 µM each time. Besides, the TGI in the test on UO-31 renal, in the test with SN12C renal, with NCI-H226 lung, in the test on SK-MEL-28 melanoma, with SK-MEL-5 melanoma and in the test with EKVX NSCLC was above 100 µM each time. Besides, the TGI in the test with SF-539 CNS and with DU-145 prostate was above 100 µM in each case.

As for `CCCC(C)NC(=O)c1ccc(N(C)Cc2cnc3nc(N)nc(N)c3n2)cc1` (stereo not given), the TGI with SF-295 CNS was above 100 µM; with MDA-N it was above 100 µM; with U251 CNS, above 100 µM; in the test with SF-268 CNS, above 100 µM; with NCI-H23 lung, above 100 µM; in the test with MALME-3M melanoma it was 39.3 µM. Moreover, the TGI is 57.5 µM with UACC-257 melanoma; 25.7 µM in the test with UACC-62 melanoma; above 100 µM in the test with NCI/ADR-RES ovarian; 58.6 µM in the test on HT29 colon; above 100 µM with COLO 205 colon; 92.5 µM in the test with ACHN renal. In addition, the TGI in the test on UO-31 renal is above 100 µM; in the test on SN12C renal, above 100 µM; in the test on NCI-H226 lung it was 47.6 µM; in the test on SK-MEL-28 melanoma, 42.3 µM; in the test on SK-MEL-5 melanoma, 37.4 µM; with EKVX NSCLC, above 100 µM. The figures for the TGI with SF-539 CNS and in the test with DU-145 prostate were 32.3 µM and above 100 µM, respectively.

As for `COC(=O)c1nn2ccc3ccccc3c2c1C(=O)OC`, the TGI in the test with SF-295 CNS, in the test with MDA-N, in the test on U251 CNS, with SF-268 CNS, in the test with NCI-H23 lung and in the test with MALME-3M melanoma was above 100 µM in each case. The TGI in the test on UACC-257 melanoma, in the test with UACC-62 melanoma, in the test with NCI/ADR-RES ovarian, in the test on HT29 colon, in the test on COLO 205 colon and in the test on ACHN renal was above 100 µM in each case. Also, the TGI in the test with UO-31 renal, with SN12C renal, in the test on NCI-H226 lung, in the test on SK-MEL-28 melanoma, with SK-MEL-5 melanoma and with EKVX NSCLC was above 100 µM throughout. Further, the TGI in the test on SF-539 CNS and in the test on DU-145 prostate was above 100 µM in each case.

Take `CCCCCCNC(=S)N/N=C(\C)c1ccccn1`: the TGI came to 12.5 µM with SF-295 CNS; 20.6 µM in the test on MDA-N; 14.2 µM in the test with U251 CNS; 17.8 µM with SF-268 CNS; 18.8 µM in the test with NCI-H23 lung; 16.8 µM in the test on MALME-3M melanoma. For the same compound, the TGI worked out at 15.3 µM with UACC-257 melanoma; 6.37 µM in the test with UACC-62 melanoma; 30.6 µM in the test with NCI/ADR-RES ovarian; 19.4 µM with HT29 colon; 18.2 µM in the test with COLO 205 colon; 10 µM with ACHN renal. Moreover, the TGI amounted to 10.9 µM in the test with UO-31 renal; 14 µM in the test with SN12C renal; 6.28 µM in the test with NCI-H226 lung; 18.5 µM in the test with SK-MEL-28 melanoma; 14.7 µM in the test with SK-MEL-5 melanoma; 47.2 µM in the test with EKVX NSCLC. The TGI came out at 11.9 µM with SF-539 CNS and 30.4 µM in the test on DU-145 prostate.

In the case of `NC(=O)c1nnsc1NN=O`, the TGI in the test on SF-295 CNS, in the test with MDA-N, with U251 CNS, in the test with SF-268 CNS, in the test on NCI-H23 lung and in the test with MALME-3M melanoma was above 100 µM each time. Besides, the TGI with UACC-257 melanoma, with UACC-62 melanoma, in the test with NCI/ADR-RES ovarian, in the test on HT29 colon, with COLO 205 colon and in the test on ACHN renal was above 100 µM in each case. Further, the TGI in the test on UO-31 renal, with SN12C renal, in the test with NCI-H226 lung, in the test with SK-MEL-28 melanoma, in the test on SK-MEL-5 melanoma and in the test with EKVX NSCLC was above 100 µM throughout. For the same compound, the TGI with SF-539 CNS and with DU-145 prostate was above 100 µM in each case.

With `CC(C)[Si]1(C(C)C)OCC2OC(n3c(C(=O)c4ccccc4)cc(=O)[nH]c3=O)CC2O[Si](C(C)C)(C(C)C)O1` (stereo not given), the TGI in the test with SF-295 CNS worked out at 13.8 µM; in the test with MDA-N it was 11.7 µM; in the test with U251 CNS, 9.85 µM; in the test with SF-268 CNS, 8.26 µM; with NCI-H23 lung, 6.13 µM; with MALME-3M melanoma, 13.1 µM. In addition, the TGI turned out to be 6.04 µM in the test on UACC-257 melanoma; 7.62 µM in the test on UACC-62 melanoma; 26.8 µM in the test with NCI/ADR-RES ovarian; 4.22 µM in the test with HT29 colon; 10.8 µM in the test on COLO 205 colon; 8.58 µM in the test on ACHN renal. Besides, the TGI with UO-31 renal came to 6.98 µM; in the test on SN12C renal, 5.5 µM; in the test with NCI-H226 lung, 5.87 µM; in the test with SK-MEL-28 melanoma it was 15 µM; with SK-MEL-5 melanoma, 14 µM; in the test with EKVX NSCLC, 14.6 µM. Besides, the figures for the TGI with SF-539 CNS and with DU-145 prostate were 8.6 µM and 24.6 µM, respectively.

With `CCN(CC)C(=S)SC1C(=O)NC(=O)NC1=O`, the TGI with SF-295 CNS, in the test with MDA-N, in the test on U251 CNS, in the test on SF-268 CNS, with NCI-H23 lung and in the test on MALME-3M melanoma was above 100 µM each time. In addition, the TGI in the test with UACC-257 melanoma, with UACC-62 melanoma, in the test with NCI/ADR-RES ovarian, with HT29 colon, in the test on COLO 205 colon and in the test on ACHN renal was above 100 µM throughout. For the same compound, the TGI in the test on UO-31 renal, in the test on SN12C renal, in the test on NCI-H226 lung, with SK-MEL-28 melanoma, with SK-MEL-5 melanoma and in the test on EKVX NSCLC was above 100 µM in each case. Further, the TGI with SF-539 CNS and with DU-145 prostate was above 100 µM throughout.

In the case of `c1ccc(-c2c3c(nc4c2CC[C@H]4NC2=NCCN2)[C@@H](NC2=NCCN2)CC3)cc1`, the TGI in the test with SF-295 CNS is above 100 µM; with MDA-N it was above 100 µM; in the test on U251 CNS, 23.6 µM; in the test with SF-268 CNS, above 100 µM; in the test on NCI-H23 lung, above 100 µM; with MALME-3M melanoma, above 100 µM. In addition, the TGI in the test on UACC-257 melanoma, in the test with UACC-62 melanoma, in the test on NCI/ADR-RES ovarian, with HT29 colon, in the test with COLO 205 colon and with ACHN renal was above 100 µM each time. In addition, the TGI in the test on UO-31 renal, in the test with SN12C renal, with NCI-H226 lung, with SK-MEL-28 melanoma, in the test with SK-MEL-5 melanoma and in the test on EKVX NSCLC was above 100 µM throughout. Also, the TGI in the test on SF-539 CNS and with DU-145 prostate was above 100 µM in each case.

For the origin of these results see PubChem BioAssay (NCI).
